What all share (type): cell-based
One test has as its system Phytophthora infestans. The note with it: active compound alone, 7 days after inoculation.
In the next test the test system is Botrytis cinerea. Briefly: Activity against grey mold caused by Botrytis cinerea in the microtiterplate test (Botrici).
The test system of the next test is Septoria tritici. Briefly: Activity against leaf blotch on wheat caused by Septoria tritici, microtiter test (Septtr). The conditions noted are these: active compound alone, 7 days after inoculation.
A further test deals with Pyricularia oryzae. The note with it: active compound alone, 7 days after inoculation.
Setting [1] is: Botrytis cinerea, 168 h, active compound alone, 4 ppm, 7 days after inoculation, read-out: Observed efficacy.
[2] abbreviates: Botrytis cinerea, 168 h, active compound alone, 1 ppm, 7 days after inoculation, read-out: Observed efficacy.

Like-named read-outs stand apart in the source and are kept apart here.

On to `Fc1ccc([C@]2(Cn3cncn3)O[C@H]2c2ccccc2Cl)cc1` (racemic) [Epoxiconazole, (2RS,3SR)-1-[3-(2-chlorophenyl)-2,3-epoxy-2-(4-fluorophenyl)propyl]-1H-1,2,4-triazole], for which the figures for the Observed efficacy with Phytophthora infestans (0.25 ppm) and with Septoria tritici (0.016 ppm) were 12% and 14%, respectively. Also, the inhibition of growth at 0.063 ppm in the test with Botrytis cinerea (Botrytis cinerea, 168 h, active compound alone, 0.063 ppm, 7 days after inoculation, read-out: Observed efficacy) was 4%.
As for `O=C(Nc1ccccc1-c1ccc(Cl)cc1)c1cccnc1Cl` [Boscalid, 2-chloro-N-(4′-chlorobiphenyl-2-yl)nicotinamide], the inhibition of growth at 4 ppm in the test on Botrytis cinerea (setting [1]) turned out to be 45%.
Consider `O=C1C2CC=CCC2C(=O)N1SC(Cl)(Cl)Cl` (stereo not shown) [Captan, 2-trichloromethylsulfanyl-3a,4,7,7a-tetrahydroisoindole-1,3-dione], for which the Observed efficacy with Phytophthora infestans (1 ppm) is on record as 26%. For the same compound, in the test on Botrytis cinerea (setting [2]), the inhibition of growth at 1 ppm stood at 64%.
Compound `N#Cc1c(Cl)c(Cl)c(Cl)c(C#N)c1Cl` [Chlorothalonil, 2,4,5,6-tetrachloroisophthalonitrile] had an Observed efficacy in the test on Phytophthora infestans (0.25 ppm) of 20%.
Consider `Cc1ccc(-c2c(Cl)nc(C#N)n2S(=O)(=O)N(C)C)cc1` [Cyazofamid, 4-chloro-2-cyano-N,N-dimethyl-5-(4-methylphenyl)-1H-imidazole-1-sulfonamide], for which, in the test with Botrytis cinerea (Botrytis cinerea, 168 h, active compound alone, 0.25 ppm, 7 days after inoculation, read-out: Observed efficacy), the inhibition of growth at 0.25 ppm was 0%.
On to `C=C(C(=O)OCc1cccc(C(F)(F)F)c1)C(O)c1cccnc1` (stereo not shown) [I.1, (3-trifluoromethylphenyl)methyl 2-[hydroxyl(pyridine-3-yl)methyl]acrylate], for which the Observed efficacy is reported as 1% in the test on Phytophthora infestans (1 ppm); 0% in the test with Phytophthora infestans (4 ppm); 42% in the test with Phytophthora infestans (16 ppm); 5% in the test with Pyricularia oryzae (0.016 ppm); 9% with Septoria tritici (0.016 ppm); 47% in the test on Septoria tritici (16 ppm). Further, the inhibition of growth at 4 ppm in the test on Botrytis cinerea (setting [1]) is 5%.
Turning to `O=C(OCc1cccc(C(F)(F)F)c1)C(=Cc1ccccc1)C(O)c1cccnc1` (stereo not shown) [I.3, (3-trifluoromethylphenyl)methyl 2-[hydroxyl(pyridine-3-yl)methyl]-3-phenylacrylate], the Observed efficacy is on record as 8% in the test on Phytophthora infestans (1 ppm), 10% in the test with Phytophthora infestans (4 ppm), 2% with Pyricularia oryzae (0.25 ppm) and 51% in the test on Septoria tritici (0.063 ppm). For the same compound, the inhibition of growth at 1 ppm in the test with Botrytis cinerea (setting [2]) turned out to be 9%. In addition, the inhibition of growth at 4 ppm in the test on Botrytis cinerea (setting [1]) turned out to be 16%.
With `Cc1ccc(C(C)NC(=O)[C@@H](NC(=O)OC(C)C)C(C)C)cc1` (stereo partly drawn) [Iprovalicarb, isopropyl [(1S)-2-methyl-1-(1-p-tolylethylcarbamoyl)propyl]carbamate], in the test with Botrytis cinerea (Botrytis cinerea, 168 h, read-out: Observed efficacy), the inhibition of growth at 1 ppm amounted to 2%.
Regarding `COC=C(C(=O)OC)c1ccccc1COc1cccc(C(F)(F)F)n1` [Picoxystrobin, methyl 3-methoxy-2-[2-(6-trifluoromethylpyridin-2-yloxymethyl)phenyl]acrylate], the values for the Observed efficacy in the test on Phytophthora infestans (0.25 ppm) and in the test on Pyricularia oryzae (0.016 ppm) were 66% and 21%, respectively.
For the compound `COC(=O)N(OC)c1ccccc1COc1ccn(-c2ccc(Cl)cc2)n1` [Pyraclostrobin, pyraclostrobin], the Observed efficacy was 38% in the test on Pyricularia oryzae (0.001 ppm) and 21% with Septoria tritici (0.001 ppm).
In turn, `Cc1cc(C)nc(Nc2ccccc2)n1` [Pyrimethanil, 4,6-di-methylpyrimidin-2-ylphenylamine] yielded an Observed efficacy in the test with Septoria tritici (16 ppm) of 50%.
Regarding “zinc propylenebis(dithiocarbamate) polymer [Propineb]”, in the test on Botrytis cinerea (active compound alone, 4 ppm, 7 days after inoculation), the Observed efficacy came to 21%.

The values are drawn from patent US20100273649A1, “Fungicidal Mixtures III” (BASF SE, priority 2007, published 2010).
